From patent US10238689B2, “Methods for combating bacterial infections by killing persister cells with mitomycin C and/or cisplatin” (THE PENN STATE RESEARCH FOUNDATION, priority 2015, dated 2019)
Converted amounts (≈) assume the structure as drawn. “And” between values parts separate entries of the source, which are not always exact repeats. Equal values may be shown once. “Also recorded” adds a separate entry of the source.

What was measured:
pCA24N DNA = assay: In vitro crosslinking of DNA and denaturing agarose gel electrophoresis; format: biochemical; conditions: cisplatin 200 μM 1.5 h and 3.5 h; MMC 500 μg/mL; denaturing gel
Method: FIG. 10 provides data obtained from analysis of in vitro crosslinking of DNA with cisplatin and denaturing agarose gel electrophoresis. To produce the results shown in FIG. 10, pCA24N DNA (4518 bp) was in vitro crosslinked with cisplatin following a standard protocol. In brief, 2.2 μg of pCA24N DNA was linearized by HindIII digestion and cleaned using Wizard-SV gel and PCR clean-up system (Promega, Madison, Wis., USA). Linearized pCA24N was then treated with 200 μM (60 μg/mL) of cisplatin (Sigma-Aldrich, St. Louis, Mo., USA) for 1.5 h and 3.5 h at 37° C. The same amount of pCA24N DNA was also treated with an equivalent amount of 0.1M NaClO4 (solvent control for cisplatin) for 3.5 h at 37° C. Mitomycin C (MMC) was used as a positive control to compare types of crosslinking between cisplatin and MMC. For MMC, the same amount (2.2 μg) of pCA24N DNA was crosslinked essentially as in Example 1. In brief, linearized pCA24N DNA was treated with 500 μg/mL (1.5 mM) MMC or without MMC in 0.2 mM EDTA, 50 mM NaCl, and 5 mM Tris (pH 7.6) with Na2S2O4 added six times at 10 min intervals to reach a final concentration of 2.25 mM (1.5×molarity of MMC). The crosslinking reaction with MMC was performed anaerobically on ice and the reaction was stopped by exposure to air. […]

[1] = tested on: P. aeruginosa PA14 and ΔtpbA biofilm cells; assay: Persister cell killing assay (biofilm cells); format: cell-based, Pseudomonas aeruginosa; conditions: 3 h, 5×MIC (cisplatin 250 μg/mL, MMC 10 μg/mL), limit of detection 100 cells/mL
Method: Persister cell killing assay (biofilm cells). […] Biofilm formation was assayed using the crystal violet staining method (Fletcher 1977) and was normalized by planktonic cell growth (turbidity at 620 nm) to account for any differences in growth rates. Data were averaged from 6 replicate wells using at least two independent cultures. […] NaClO4 (0.1M) was used as a solvent control for cisplatin. Cell viability in biofilms was assayed before and after the MMC and cisplatin treatments by removing supernatants (planktonic cells) from each well carefully, resuspending the biofilm in normal saline, and sonicating twice at 3W for 10 sec (Ueda and Wood 2009) to break apart the biofilm cells (due to the aggregative nature of P. aeruginosa ΔtpbA cells). Suspensions from multiple wells were combined to get an averaged sample. Then the cell suspensions were serially diluted in normal saline for a drop assay to check cell viability.

P. aeruginosa PA14 [2] = assay: Persister cell assay of pathogens (stationary phase), cisplatin vs MMC; format: cell-based, Pseudomonas aeruginosa; conditions: M9-glucose, 3 h
Method: For the persister cell assay of the pathogens, stationary-phase cells were used. Cultures of EHEC, P. aeruginosa, and S. aureus were prepared by a 1:1000 dilution of overnight grown cultures (LB medium for EHEC and P. aeruginosa, TSB for S. aureus) into fresh buffered LB medium for EHEC, M9-glucose for P. aeruginosa, and TSB for S. aureus and re-growing the cells to a turbidity of 3 to 4 at 600 nm for EHEC and S. aureus and growing for 24 h for P. aeruginosa. […]
NaClO4 (0.1M) was used as a solvent control. The viability of the cells was determined before and after cisplatin and MMC treatment. At least two independent cultures of each strain were used in each experiment.

P. aeruginosa PA14 [3] = assay: Minimum inhibitory concentration (MIC) assay; format: cell-based, Pseudomonas aeruginosa
Method: Minimum inhibitory concentration (MIC) assay. To determine the MICs of cisplatin for E. coli K-12, enterohemorrhagic E. coli (EHEC), S. aureus, and P. aeruginosa (PAO1 and PA14), freshly inoculated cultures (at least two independent cultures) in buffered LB (TSB for S. aureus) were incubated for 16 h with varying concentrations of cisplatin, and growth inhibition was assayed by the lack of turbidity.

[4] = tested on: EHEC, S. aureus, and P. aeruginosa PAO1; format: cell-based; conditions: mono- and co-cultures in wound-like medium, 5 h treatment
Method: Overnight cultures (16 h) of EHEC, S. aureus, and P. aeruginosa PAO1 were grown in LB (TSB for S. aureus), washed with 0.85% NaCl solution, and diluted 1:1000 (as mono-cultures or co-cultures) in wound-like medium (WLM) (45% Bolton broth, 50% heparinized bovine plasma, and 5% laked horse blood). […] Samples containing S. aureus were coagulated, so sections of coagulated WLM were cut and weighed add appropriate amounts of antibiotics. Coagulated samples were triturated and vortexed to release cells prior to measuring cell viability.

[5] = tested on: E. coli K-12 biofilm cultures; assay: Biofilm antibiotic killing assay; format: cell-based, Escherichia coli
DNA = conditions: Eastman 1987; cited from earlier work
E. coli K-12 cells = assay: Test of DNA crosslinking compounds for antimicrobial activity; format: cell-based, Escherichia coli; conditions: 100 μg/mL
Method: Stocks of cisplatin (2 mg/mL, Sigma-Aldrich, St. Louis, Mo., USA) were prepared in 0.1M NaClO4 and MMC (0.5 mg/mL, Fisher Scientific, Pittsburgh, Pa., USA) was prepared in water. Stocks of busulfan (2 mg/mL, Cayman Chemical, Ann Arbor, Mich., USA), melphalan (2 mg/mL, Cayman Chemical), dynemicin A (5 mg/mL, AdooQ, Irvine, Calif., USA), and tirapazamine (0.5 mg/mL, Sigma-Aldrich) were prepared in dimethylsulfoxide, the stock of cyclophosphamide (0.5 mg/mL, Cayman Chemical) was prepared in water, and the stock of carmustine (214 mg/mL, Enzo Life Sciences, Farmingdale, N.Y., USA) was prepared in ethanol.
In this Example we tested seven other DNA crosslinking compounds: busulfan (100 μg/mL), carmustine (100 μg/mL) cisplatin (100 μg/mL), cyclophosphamide (100 μg/mL), dynemicin A (200 μg/mL), melphalan (100 μg/mL), and tirapazamine (10 μg/mL).

[6] = 1×MIC (cisplatin 50 μg/mL, MMC 2 μg/mL)
[7] = 5×MIC (cisplatin 250 μg/mL, MMC 10 μg/mL)

Row | SMILES | type of DNA crosslinking in vitro (pCA24N DNA) | cell viability of biofilm cells ([1]; PA14 biofilm) | cell viability of biofilm cells ([1]; ΔtpbA biofilm) | survival (P. aeruginosa PA14 [2]; [6]) | survival (P. aeruginosa PA14 [2]; [7]) | MIC (1×MIC) (P. aeruginosa PA14 [3]) [µg/mL] | effectiveness under wound-like conditions [4] | fold more susceptible to MMC than ciprofloxacin ([5]; anaerobic biofilm cultures in M9-glucose) | fold more cells killed than ciprofloxacin ([5]; biofilms in M9-glucose, 24 h of treatment) | biofilm cell viability after treatment ([5]; biofilms in M9-glucose, MMC 10 μg/mL, 24 h) | intrastrand crosslinks at AG sequences (DNA) | intrastrand crosslinks at GNG sequences (DNA) [%] | intrastrand crosslinks at adjacent guanines (DNA) | antimicrobial activity (E. coli K-12 cells)
1 | CO[C@@]12[C@H](COC(N)=O)C3=C(C(=O)C(C)=C(N)C3=O)N1C[C@@H]1N[C@@H]12 [MMC, mitomycin C] | crosslinks inter-strand DNA | could not eradicate | could not eradicate | 5±2% | 0.0056±0.0004% | 2 (≈ 5.98 µM) | eradicates pathogens; also recorded: more effective than ciprofloxacin and ampicillin | 2,500 fold | 100,000 fold | nearly eliminating cells |  |  |  | 
2 | N.N.[Cl][Pt][Cl] [cisplatin, cis-diamminodichloroplatinum(II)] | crosslinks the same strand of DNA; also recorded: crosslinks intra-strand DNA | completely eradicated | completely eradicated | completely eradicated | eradicated | 50 |  |  |  |  | 17-19% and 17 to 19% | < 8 | 54-65% and 54 to 65% | exhibited antimicrobial activity
